Source: ChEMBL document CHEMBL3044942, “Unexpected plant-systemic insecticidal properties of alkylene-tethered bis-imidacloprid derivatives” (J Pestic Sci, 2010)
Activity calls are given as the source filed them. The rule behind the calls is not given here.

Legend:
[1] = system: Spodoptera litura; assay: Insecticidal activity against Spodoptera litura in compound treated chinese cabbage leaves assessed as mortality after foliar dipping at 100 mg/l at 25 degC measured after 120 hr; assay type: functional
[2] = system: Myzus persicae; assay: Insecticidal activity against Myzus persicae (green peach aphid) in compound treated chinese cabbage leaves assessed as mortality after foliar dipping at 10 mg/l at 25 degC measured after 120 hr; assay type: functional
[3] = system: Myzus persicae; assay: Insecticidal activity against Myzus persicae (green peach aphid) in compound treated chinese cabbage leaves assessed as mortality after foliar dipping at 100 mg/l at 25 degC measured after 120 hr; assay type: functional
[4] = Octanol-water partition coefficient, log P of the compound; assay type: physicochemical
[5] = system: Nilaparvata lugens; assay: Insecticidal activity against Nilaparvata lugens (brown plant hoppers) in rice seedlings root dipped in compound assessed as mortality at 100 mg/l measured after 14 days of drench application by systemic insecticidal activity assay; assay type: functional, organism-based
[6] = system: Nilaparvata lugens; assay: Insecticidal activity against Nilaparvata lugens (brown planthoppers) in rice seedlings root dipped in compound assessed as mortality at 100 mg/l measured after 7 days of drench application by systemic insecticidal activity assay; assay type: functional, organism-based
[7] = system: Nilaparvata lugens; assay: Insecticidal activity against Nilaparvata lugens (brown planthoppers) in rice seedlings root dipped in compound assessed as mortality at 100 mg/l measured after 3 days of drench application by systemic insecticidal activity assay; assay type: functional, organism-based
[8] = system: Plutella xylostella; assay: Insecticidal activity against Plutella xylostella (diamondback moth) in compound treated cabbage leaves assessed as mortality at 10 mg/l measured on day 3 after foliar treatment by residual insecticidal activity assay; assay type: functional, organism-based
[9] = system: Myzus persicae; assay: Insecticidal activity against Myzus persicae (green peach aphid) in compound treated chinese cabbage leaves assessed as mortality at 10 mg/l measured on day 3 after foliar treatment by residual insecticidal activity assay; assay type: functional, organism-based
[10] = system: Nilaparvata lugens; assay: Insecticidal activity against Nilaparvata lugens (brown planthopper) in rice seedlings assessed as mortality measured on day 3 after foliar treatment by residual insecticidal activity assay; assay type: functional, organism-based
[11] = system: Spodoptera litura; assay: Insecticidal activity against Spodoptera litura in compound treated chinese cabbage leaves assessed as mortality after foliar dipping at 10 mg/l at 25 degC measured after 120 hr; assay type: functional
[12] = system: Plutella xylostella; assay: Insecticidal activity against Plutella xylostella (diamondback moth) assessed as mortality after soil treatment on third day of infestation; assay type: functional, organism-based
[13] = system: Myzus persicae; assay: Insecticidal activity against Myzus persicae (green peach aphid) assessed as mortality after soil treatment at 25 degC measured after 11th day of infestation; assay type: functional, organism-based

| Structure (SMILES) | mortality at 100 µg/mL [1] | mortality at 10 µg/mL [2] | mortality at 100 µg/mL [3] | logP ([4]; read-out: logP) | inhibition [5] | inhibition [6] | inhibition [7] | Activity [8] | Activity [9] | Activity [10] | mortality at 10 µg/mL [11] | inhibition [12] | inhibition [13] | logP [4] |
| --- | --- | --- | --- | --- | --- | --- | --- | --- | --- | --- | --- | --- | --- | --- |
| O=[N+]([O-])/N=C1\N(CCCCCCN2CCN(Cc3ccc(Cl)nc3)/C2=N/[N+](=O)[O-])CCN1Cc1ccc(Cl)nc1 | 83% | 10% | 23% | 4.97 | Active | Active | Active | Active | Active | Active | 27% |  |  |  |
| O=[N+]([O-])/N=C1\N(Cc2ccc(CN3CCN(Cc4ccc(Cl)nc4)/C3=N/[N+](=O)[O-])cc2)CCN1Cc1ccc(Cl)nc1 | 47% | 97% | 97% | 5.69 |  |  |  |  |  |  | 3% |  |  |  |
| O=[N+]([O-])/N=C1\N(CCCCN2CCN(Cc3ccc(Cl)nc3)/C2=N/[N+](=O)[O-])CCN1Cc1ccc(Cl)nc1 | 57% | 0% | 7% | 4.56 |  |  |  |  |  |  | 7% |  |  |  |
| O=[N+]([O-])/N=C1\N(CCCCCCCCN2CCN(Cc3ccc(Cl)nc3)/C2=N/[N+](=O)[O-])CCN1Cc1ccc(Cl)nc1 | 80% | 83% | 97% | 5.37 |  |  |  |  |  |  | 27% |  |  |  |
| O=[N+]([O-])/N=C1\N(CCCCCCCCCCCCN2CCN(Cc3ccc(Cl)nc3)/C2=N/[N+](=O)[O-])CCN1Cc1ccc(Cl)nc1 | 0% | 19% | 50% | 6.14 |  |  |  |  |  |  | 0% |  |  |  |
| O=[N+]([O-])/N=C1\N(CCCCCCCCCCN2CCN(Cc3ccc(Cl)nc3)/C2=N/[N+](=O)[O-])CCN1Cc1ccc(Cl)nc1 | 27% | 27% | 43% | 5.76 |  |  |  |  |  |  | 0% |  |  |  |
| O=[N+]([O-])/N=C1\N(CCCCCCCN2CCN(Cc3ccc(Cl)nc3)/C2=N/[N+](=O)[O-])CCN1Cc1ccc(Cl)nc1 | 85% | 93% | 97% | 5.18 | Active | Active | Active | Active | Active | Active | 23% | Active | Active |  |
| O=[N+]([O-])/N=C1\N(CCCCCN2CCN(Cc3ccc(Cl)nc3)/C2=N/[N+](=O)[O-])CCN1Cc1ccc(Cl)nc1 | 40% | 0% | 13% | 4.77 |  |  |  |  |  |  | 0% |  |  |  |
| O=[N+]([O-])/N=C1\N(CCCN2CCN(Cc3ccc(Cl)nc3)/C2=N/[N+](=O)[O-])CCN1Cc1ccc(Cl)nc1 | 80% | 13% | 27% | 4.35 |  |  |  |  |  |  | 13% |  |  |  |
| O=[N+]([O-])NC1=NCCN1Cc1ccc(Cl)nc1 [IMIDACLOPRID] | 97% | 100% | 100% |  |  |  |  |  |  |  | 17% |  |  | 1.88 |
| O=[N+]([O-])/N=C1\N(CCN2CCN(Cc3ccc(Cl)nc3)/C2=N/[N+](=O)[O-])CCN1Cc1ccc(Cl)nc1 | 20% | 23% | 97% | 4.13 |  |  |  |  |  |  | 0% |  |  |  |
| O=[N+]([O-])/N=C1\N(CCCCCCCCCN2CCN(Cc3ccc(Cl)nc3)/C2=N/[N+](=O)[O-])CCN1Cc1ccc(Cl)nc1 | 57% | 77% | 93% | 5.57 |  |  |  |  |  |  | 3% |  |  |  |
| O=[N+]([O-])/N=C1/N(Cc2ccc(Cl)nc2)CCN1Cc1cccc(CN2CCN(Cc3ccc(Cl)nc3)/C2=N/[N+](=O)[O-])c1 | 47% | 33% | 57% | 5.69 |  |  |  |  |  |  | 3% |  |  |  |
